Here are results for five compounds from ChEMBL document CHEMBL3045532, “Synthesis and evaluation of novel prodrugs of naproxen” (Med Chem Res, 2011).

Each structure is given as a SMILES string.

Data set [1] is filed under the species Rattus norvegicus. The data set can be described thus: animal or person. Particulars: Wistar, po, 1.5 h, read-out: INH.
Description: Anti-inflammatory activity in Rattus norvegicus Wistar (rat) assessed as inhibition of carrageenan-induced edema volume at 50.0 mg/kg, po measured after 90 min
The species named for data set [2] is Rattus norvegicus. Kind of data set: animal or person. The conditions noted are these: Wistar, po, 2 h, read-out: INH.
Description: Anti-inflammatory activity in Rattus norvegicus Wistar (rat) assessed as inhibition of carrageenan-induced edema volume at 50.0 mg/kg, po measured after 120 min
Data set [3] is filed under the species Mus musculus. Kind of data set: animal or person. Particulars: po, read-out: INH.
Description: Analgesic activity in Mus musculus (mouse) assessed as inhibition of acetic acid-induced writhing at 50 mg/kg, po pretreated 1 hr before acetic acid challenge
The species named for data set [4] is Rattus norvegicus. The data set can be described thus: animal or person. Particulars: Wistar, po, 0.5 h, read-out: INH.
Description: Anti-inflammatory activity in Rattus norvegicus Wistar (rat) assessed as inhibition of carrageenan-induced edema volume at 50.0 mg/kg, po measured after 30 min
The species named for data set [5] is Rattus norvegicus. The data set can be described thus: animal or person. The conditions noted are these: Wistar, po, 1 h, read-out: INH.
Description: Anti-inflammatory activity in Rattus norvegicus Wistar (rat) assessed as inhibition of carrageenan-induced edema volume at 50.0 mg/kg, po measured after 60 min
Data set [6] relates to Rattus norvegicus. The data set can be described thus: Anti-inflammatory activity in Rattus norvegicus Wistar (rat) assessed as inhibition of carrageenan-induced edema volume at 63.2 mg/kg, po measured after 90 min. The class given is functional. Particulars: 1.5 h.
Data set [7] concerns Rattus norvegicus. The data set can be described thus: Anti-inflammatory activity in Rattus norvegicus Wistar (rat) assessed as inhibition of carrageenan-induced edema volume at 63.2 mg/kg, po measured after 120 min. The data set is classed as functional. Particulars: 2 h.
The subject of data set [8] is Rattus norvegicus. The data set can be described thus: Anti-inflammatory activity in Rattus norvegicus Wistar (rat) assessed as inhibition of carrageenan-induced edema volume at 63.2 mg/kg, po measured after 60 min. The data set is classed as functional. The conditions noted are these: 1 h.
For data set [9], the system named is Mus musculus. The data set can be described thus: Analgesic activity in Mus musculus (mouse) assessed as inhibition of acetic acid-induced writhing at 63.2 mg/kg, po pretreated 1 hr before acetic acid challenge. The data set is classed as functional.
Data set [10] relates to Rattus norvegicus. Kind of data set: Anti-inflammatory activity in Rattus norvegicus Wistar (rat) assessed as inhibition of carrageenan-induced edema volume at 63.2 mg/kg, po measured after 30 min. The data set is classed as functional. Particulars: 0.5 h.
Data set [11] in a line: Prodrug conversion in phosphate buffer assessed as half-life for hydrolysis at pH 7.4. The data set is classed as physicochemical.
Data set [12] can be described thus: Prodrug conversion in acetate buffer assessed as half-life for hydrolysis at pH 4. The class given is physicochemical.
Data set [13] is described as follows: Prodrug conversion in acetate buffer assessed as half-life for hydrolysis at pH 5. The data set is classed as physicochemical.
Data set [14] in a line: Prodrug conversion in acetate buffer assessed as half-life for hydrolysis at pH 3. The data set is classed as physicochemical.
In data set [15] the test system is Rattus norvegicus. Kind of data set: Gastrointestinal toxicity in Rattus norvegicus Wistar (rat) assessed as ulcer at 63.2 mg/kg, po. Set-up: dose 63.2 mg/kg, route oral. Particulars: in vivo. The data set is classed as organism-based.
Data set [16] deals with Rattus norvegicus. The data set can be described thus: Anti-inflammatory activity in Rattus norvegicus Wistar (rat) assessed as inhibition of carrageenan-induced edema volume at 66.4 mg/kg, po measured after 90 min. The class given is functional. Particulars: 1.5 h.
Data set [17] concerns Rattus norvegicus. The data set can be described thus: Anti-inflammatory activity in Rattus norvegicus Wistar (rat) assessed as inhibition of carrageenan-induced edema volume at 66.4 mg/kg, po measured after 120 min. The data set is classed as functional. The conditions noted are these: 2 h.
For data set [18], the system named is Rattus norvegicus. Kind of data set: Anti-inflammatory activity in Rattus norvegicus Wistar (rat) assessed as inhibition of carrageenan-induced edema volume at 66.4 mg/kg, po measured after 60 min. Particulars: 1 h. The data set is classed as functional.
Data set [19] concerns Mus musculus. Kind of data set: Analgesic activity in Mus musculus (mouse) assessed as inhibition of acetic acid-induced writhing at 66.4 mg/kg, po pretreated 1 hr before acetic acid challenge. The data set is classed as functional.
Data set [20] concerns Rattus norvegicus. The data set can be described thus: Anti-inflammatory activity in Rattus norvegicus Wistar (rat) assessed as inhibition of carrageenan-induced edema volume at 66.4 mg/kg, po measured after 30 min. The data set is classed as functional. Particulars: 0.5 h.
Data set [21] concerns Rattus norvegicus. Kind of data set: Gastrointestinal toxicity in Rattus norvegicus Wistar (rat) assessed as ulcer at 66.4 mg/kg, po. The data set is classed as organism-based. Set-up: dose 66.4 mg/kg, route oral. The conditions noted are these: in vivo.
Data set [22] relates to Rattus norvegicus. Kind of data set: Anti-inflammatory activity in Rattus norvegicus Wistar (rat) assessed as inhibition of carrageenan-induced edema volume at 66.0 mg/kg, po measured after 90 min. The class given is functional. The conditions noted are these: 1.5 h.
Data set [23] concerns Rattus norvegicus. Kind of data set: Anti-inflammatory activity in Rattus norvegicus Wistar (rat) assessed as inhibition of carrageenan-induced edema volume at 66.0 mg/kg, po measured after 120 min. Particulars: 2 h. The class given is functional.
For data set [24], the system named is Rattus norvegicus. The data set can be described thus: Gastrointestinal toxicity in Rattus norvegicus Wistar (rat) assessed as ulcer at 66 mg/kg, po. The conditions noted are these: in vivo. The class given is organism-based. Also on record: dose 66 mg/kg, route oral.
The test system of data set [25] is Rattus norvegicus. Kind of data set: Anti-inflammatory activity in Rattus norvegicus Wistar (rat) assessed as inhibition of carrageenan-induced edema volume at 66.0 mg/kg, po measured after 60 min. The class given is functional. Particulars: 1 h.
The subject of data set [26] is Mus musculus. Kind of data set: Analgesic activity in Mus musculus (mouse) assessed as inhibition of acetic acid-induced writhing at 66 mg/kg, po pretreated 1 hr before acetic acid challenge. The data set is classed as functional.
For data set [27], the system named is Rattus norvegicus. Kind of data set: Anti-inflammatory activity in Rattus norvegicus Wistar (rat) assessed as inhibition of carrageenan-induced edema volume at 66.0 mg/kg, po measured after 30 min. The class given is functional. Particulars: 0.5 h.
Data set [28] concerns Rattus norvegicus. The data set can be described thus: Anti-inflammatory activity in Rattus norvegicus Wistar (rat) assessed as inhibition of carrageenan-induced edema volume at 62.8 mg/kg, po measured after 90 min. The data set is classed as functional. Particulars: 1.5 h.
The subject of data set [29] is Rattus norvegicus. Kind of data set: Anti-inflammatory activity in Rattus norvegicus Wistar (rat) assessed as inhibition of carrageenan-induced edema volume at 62.8 mg/kg, po measured after 120 min. The data set is classed as functional. The conditions noted are these: 2 h.
The test system of data set [30] is Rattus norvegicus. The data set can be described thus: Gastrointestinal toxicity in Rattus norvegicus Wistar (rat) assessed as ulcer at 62.8 mg/kg, po. The class given is organism-based. Also on record: dose 62.8 mg/kg, route oral. Particulars: in vivo.
In data set [31] the test system is Rattus norvegicus. Kind of data set: Anti-inflammatory activity in Rattus norvegicus Wistar (rat) assessed as inhibition of carrageenan-induced edema volume at 62.8 mg/kg, po measured after 60 min. The data set is classed as functional. The conditions noted are these: 1 h.
Data set [32] has as its system Mus musculus. Kind of data set: Analgesic activity in Mus musculus (mouse) assessed as inhibition of acetic acid-induced writhing at 62.8 mg/kg, po pretreated 1 hr before acetic acid challenge. The data set is classed as functional.
The subject of data set [33] is Rattus norvegicus. Kind of data set: Anti-inflammatory activity in Rattus norvegicus Wistar (rat) assessed as inhibition of carrageenan-induced edema volume at 62.8 mg/kg, po measured after 30 min. The class given is functional. The conditions noted are these: 0.5 h.

Regarding `COc1ccc2cc([C@H](C)C(=O)O)ccc2c1` [NAPROXEN], the inhibition in vivo at 50 mg/kg turned out to be 42% in the data set filed under Rattus norvegicus [1]; 58% in the data set listed under Rattus norvegicus [2]; 61.4% in the data set listed under Mus musculus [3]; 10% in the data set filed under Rattus norvegicus [4]; 32% in the data set filed under Rattus norvegicus [5].
As for `COc1ccc2cc(C(C)C(=O)OCC(OC(C)=O)C(OC(C)=O)C(OC(C)=O)C(/C=N/[C@@H](C)C(=O)O)OC(C)=O)ccc2c1` (stereo not given in full), the inhibition in vivo at 63.2 mg/kg in the data set with Rattus norvegicus [6] was determined as 49%; with Rattus norvegicus [7], 67%; in the data set on Rattus norvegicus [8] it was 29%; in the data set with Mus musculus [9], 98.2%; with Rattus norvegicus [10], 62%. For the same compound, the t1/2 in data set [11] came out at 22 h; in data set [12], 15 h; in [13], 77 h; in data set [14], 15 h. In addition, in the data set with Rattus norvegicus [15], the Activity result is “Non-toxic”.
In the case of `COc1ccc2cc(C(C)C(=O)OCC(OC(C)=O)C(OC(C)=O)C(OC(C)=O)C(/C=N/[C@@H](CS)C(=O)O)OC(C)=O)ccc2c1` (stereo not given in full), the inhibition in vivo at 66.4 mg/kg was 57% in the data set with Rattus norvegicus [16]; 67% in the data set with Rattus norvegicus [17]; 30% in the data set with Rattus norvegicus [18]; 30.4% in the data set with Mus musculus [19]; 42% in the data set on Rattus norvegicus [20]. Also, the t1/2 in data set [11] is 30 h; in data set [12], 15 h; in data set [13], 77 h; in data set [14], 44 h. Further, the Activity entry in the data set with Rattus norvegicus [21] is recorded as “Non-toxic”.
As for `COc1ccc2cc(C(C)C(=O)OCC(OC(C)=O)C(OC(C)=O)C(OC(C)=O)C(/C=N/[C@H](C(=O)O)C(C)C)OC(C)=O)ccc2c1` (stereo not given in full), the inhibition in vivo at 66 mg/kg in the data set on Rattus norvegicus [22] came out at 43%; with Rattus norvegicus [23], 64%; in the data set on Rattus norvegicus [25], 19%; with Mus musculus [26], 63.6%; in the data set with Rattus norvegicus [27], 30%. Also, in the data set on Rattus norvegicus [24], the Activity result was “Non-toxic”. For the same compound, the t1/2 came to 19 h in data set [11], 115 h in data set [12], 88 h in [13] and 44 h in data set [14].
For the compound `COc1ccc2cc(C(C)C(=O)OCC(OC(C)=O)C(OC(C)=O)C(OC(C)=O)C(/C=N/CC(=O)O)OC(C)=O)ccc2c1` (stereo not given), the inhibition in vivo at 62.8 mg/kg in the data set with Rattus norvegicus [28] worked out at 58%; in the data set with Rattus norvegicus [29], 76%; in the data set on Rattus norvegicus [31] it was 37%; with Mus musculus [32], 63.6%; in the data set on Rattus norvegicus [33], 58%. In addition, in the data set on Rattus norvegicus [30], the Activity entry is listed as “Non-toxic”. For the same compound, the t1/2 in [11] amounted to 25 h; in [12], 44 h; in [13], 88 h; in data set [14] it was 115 h.
